# Patent publication US20180298317A1, “DEVICES FOR SIMULATING A FUNCTION OF A TISSUE AND METHODS OF USE AND MANUFACTURING THEREOF” (PRESIDENT AND FELLOWS OF HARVARD COLLEGE, priority 2015, published 2018)
# What was measured:
# [1] = system: human brain microvascular endothelial cells with pericytes or astrocytes; test: Inflammatory stimulation and cytokine release in static Transwell cultures; type: cell-based
# Experimental: 24-well Transwell inserts (Corning), about 0.4 μm, polyethylene terephthalate membranes, were coated with rat-tail collagen I (Corning) at about 100 μg/ml in phosphate-buffered saline for about 2 hours. The inserts were inverted and pericytes or astrocytes were seeded at about 6.25×10^3 cells per insert. After about 2 hours of incubation, the inserts were placed in 24-well plates and seeded with hBMVEC at about 2.5×10^4 cells per insert. Transendothelial electrical resistance (TEER) values were measured after about 120 hrs of culture using an EndOhm (WPI) and chopstick electrodes. Paracellular diffusion was assayed about 5 minutes after adding dextran 3 kDa-Alexa488 (about 100 μg/ml) to the apical chamber and using a Synergy Neo platereader (BioTek (Winooski, Vt., USA)).
# Microfluidic chips and Transwell inserts were cultured for about 72 hours, followed by incubation in CSC complete medium with fetal bovine serum reduced from about 10% to about 2% for about 18 hours. Microfluidics chips were stimulated with TNF-α (Sigma-Aldrich) at about 50 ng/ml in CSC complete medium with about 2% serum for about 6 hrs (about 5 min flow at about 120 μl/min corresponding to about 1 dyne/cm^2, followed by static conditions). Transwells were stimulated on the apical and the basal side. […]
# (§1) To explore whether we can use the synthetic nature of the 3D BBB chip to analyze the contributions of individual brain vasculature-associated cells to neuroinflammation, the engineered microvessels were cultured in the presence or absence of TNF-α (about 50 ng/ml) that was flowed through the lumen for about 6 hours. Cytokine release profiles produced in the 3D BBB chips containing endothelium with or without either pericytes or astrocytes were then analyzed, and the results were compared to those obtained with similar mono-cultures, as well as co-cultures maintained in commercial Transwell culture plates.
# [2] = system: human brain microvascular endothelial cells with pericytes or astrocytes; test: Inflammatory stimulation and cytokine release in 3D BBB chip; type: cell-based
# Experimental: Microfluidic chips and Transwell inserts were cultured for about 72 hours, followed by incubation in CSC complete medium with fetal bovine serum reduced from about 10% to about 2% for about 18 hours. Microfluidics chips were stimulated with TNF-α (Sigma-Aldrich) at about 50 ng/ml in CSC complete medium with about 2% serum for about 6 hrs (about 5 min flow at about 120 μl/min corresponding to about 1 dyne/cm^2, followed by static conditions). Transwells were stimulated on the apical and the basal side. Following thorough rinsing of microfluidic chips under continuous flow (about 120 μl/min, about 1 dyne/cm^2) and batch washes of Transwell plates with CSC complete medium with about 2% serum, conditioned medium from the chips was collected continuously for about 1 hour at about 100 μl/hr (about 0.01 dyne/cm^2) using syringe-driven flow; medium from the apical compartment was collected from Transwells after about 1 hour. The cytokine release profile was assayed with the Bio-Plex Pro Human Cytokine 17-plex Assay (Bio-Rad) in a Bioplex 3D system (Bio-Rad), and the resulting cytokine release profiles were normalized to cell culture area in 3D BBB chips versus Transwells.
# as §1
substance,measurement,setting,value
TNF-α,IL-6 induction,"[1]; Transwell co-cultures, about 50 ng/ml, about 6 hours",barely detectable
same,IL-8 production in response to stimulation,"[1]; Transwell cultures, astrocytes or pericytes in combination with endothelial cells",enhanced IL-8 production
same,induction of G-CSF secretion,"[1]; endothelial cells and astrocytes co-cultured under static conditions in Transwells, about 50 ng/ml, about 6 hours",could not be detected
same,IL-6 induction,"[2]; 3D BBB chip co-cultures of astrocytes-endothelial cells and pericytes-endothelial cells, about 50 ng/ml, about 6 hours",strong IL-6 induction
same,IL-8 production in response to stimulation,"[2]; 3D BBB chip, astrocytes or pericytes in combination with endothelial cells",enhanced IL-8 production
same,induction of G-CSF secretion,"[2]; 3D BBB chip, pericytes with endothelium, about 50 ng/ml, about 6 hours",generally not sensitive to induction
same,increase in G-CSF secretion in response to TNF-α stimulation,"[2]; 3D BBB chips containing astrocytes and endothelial cells, about 50 ng/ml, about 6 hours",≤ 10 fold
